The test relates to fibroblast growth factor 19 (FGF19) secretion in human ileum. The experiment in a line: Human Ileum APECCS (FGF19). Type of test: cell-based. The conditions noted are these: relative to GW4064.

The values below come from patent US11718619B2, “Isoxazolyl-carbonyloxy azabicyclo[3.2.1]octanyl compounds as FXR activators” (ARDELYX, INC., priority 2016, dated 2023).

Structures are written as SMILES.

For `CC(C)c1onc(-c2c(Cl)cccc2Cl)c1COc1ccc(/C=C/c2cccc(C(=O)O)c2)c(Cl)c1` [GW4064], the “Activity, % (n)” value is 100 ± 0 (154) %.
